Converted amounts (≈) assume the structure as drawn. Blank lines part the entries; values can stand above or below the compound they belong to.
Legend:
[1] = test system: Pseudomonas aeruginosa; test: Antibacterial activity against imipenem-sensitive Pseudomonas aeruginosa isolate 1091-05 infected in sc dosed neutropenic-C3H/HeN mouse assessed as mouse survival administered 4 hrs post infection followed by BID dosing for two days measured on day 10; assay type: functional; details: isolate 1091-05, sc, read-out: PD50
[2] = test system: Pseudomonas aeruginosa; test: Antibacterial activity against Pseudomonas aeruginosa isolate 1091-05; assay type: functional
[3] = test system: Acinetobacter baumannii; test: Antibacterial activity against Acinetobacter baumannii AB-3167; assay type: functional
[4] = test system: Klebsiella pneumoniae; test: Antibacterial activity against Klebsiella pneumoniae 1000-02; assay type: functional
[5] = test system: Pseudomonas aeruginosa; test: Antibacterial activity against Pseudomonas aeruginosa; assay type: functional
[6] = test system: Stenotrophomonas maltophilia; test: Antimicrobial activity against Stenotrophomonas maltophilia; assay type: functional
[7] = test system: Acinetobacter sp.; test: Antimicrobial activity against Acinetobacter sp.; assay type: functional
[8] = test system: Klebsiella aerogenes; test: Antimicrobial activity against Enterobacter aerogenes; assay type: functional
[9] = test system: Pseudomonas aeruginosa; test: Antibacterial activity against imipenem-sensitive Pseudomonas aeruginosa isolate 1091-05 infected in ip dosed SF-1 mouse assessed as survival of animal administered 0.5 and 4 hrs post infected measured on day 4; assay type: functional; details: isolate 1091-05, ip, read-out: PD50
[10] = test system: Citrobacter freundii; test: Antimicrobial activity against Citrobacter freundii; assay type: functional
[11] = test system: Serratia marcescens; test: Antimicrobial activity against Serratia marcescens; assay type: functional
[12] = Plasma protein binding in human; assay type: ADME, cell-free; details: read-out: PPB (converted)

Compound: C[C@H](O)Cn1c(-c2cc(=O)c(O)c[nH]2)nn(S(=O)(=O)[N-]C(=O)N2C[C@H](NC(=O)/C(=N\OC(C)(C)C(=O)[O-])c3csc(N)n3)C2=O)c1=O.[Na+].[Na+]
- ED50 [1]: 15.7 mg/kg
- MIC [2]: 0.125 µg/mL
- MIC [3]: 1 µg/mL
- MIC [4]: 0.25 µg/mL
- MIC90 [5]: 1 µg/mL

Compound: C[C@H]1[C@H](NC(=O)/C(=N\OC(C)(C)C(=O)O)c2csc(N)n2)C(=O)N1S(=O)(=O)O [AZTREONAM]
- ED50 [1]: > 200 mg/kg
- MIC [2]: 8 µg/mL (≈ 18.4 µM)
- MIC50 [6]: > 64 µg/mL
- MIC90 [6]: > 64 µg/mL
- MIC50 [7]: 32 µg/mL (≈ 73.5 µM)
- MIC90 [7]: > 64 µg/mL
- MIC [3]: 32 µg/mL (≈ 73.5 µM)
- MIC90 [8]: 64 µg/mL (≈ 147 µM)
- ED50 [9]: > 50 mg/kg
- MIC50 [10]: 0.25 µg/mL (≈ 0.574 µM)
- MIC90 [10]: 64 µg/mL (≈ 147 µM)
- MIC50 [11]: 0.5 µg/mL (≈ 1.15 µM)
- MIC90 [11]: > 64 µg/mL

Compound: C[C@H](O)Cn1c(-c2cc(=O)c(O)c[nH]2)nn(S(=O)(=O)[N-]C(=O)N2C(=O)[C@@H](NC(=O)/C(=N\OC(C)(C)C(=O)[O-])c3csc(N)n3)[C@@H]2C)c1=O.[Na+].[Na+]
- ED50 [1]: 21.3 mg/kg
- MIC [2]: 0.25 µg/mL
- MIC [3]: 4 µg/mL
- MIC [4]: 1 µg/mL
- MIC90 [5]: 0.5 µg/mL

Compound: CC(C)(O/N=C(\C(=O)N[C@H]1CN(C(=O)[N-]S(=O)(=O)n2nc(-c3cc(=O)c(O)c[nH]3)n(C[C@H](O)CO)c2=O)C1=O)c1csc(N)n1)C(=O)[O-].[Na+].[Na+]
- ED50 [1]: 18.6 mg/kg
- MIC [2]: 0.125 µg/mL
- MIC [3]: 0.5 µg/mL
- MIC [4]: 0.5 µg/mL
- MIC90 [5]: 1 µg/mL

Compound: COCCn1c(-c2cc(=O)c(O)c[nH]2)nn(S(=O)(=O)[N-]C(=O)N2C[C@H](NC(=O)/C(=N\OC(C)(C)C(=O)[O-])c3csc(N)n3)C2=O)c1=O.[Na+].[Na+]
- ED50 [1]: > 70.8 mg/kg
- MIC [2]: 0.5 µg/mL
- MIC [3]: 4 µg/mL
- MIC [4]: 0.5 µg/mL
- MIC90 [5]: 1 µg/mL

Results, then the compound that gave them:

- MIC [2]: 0.25 µg/mL
Compound: CC(C)(O/N=C(\C(=O)N[C@H]1CN(C(=O)[N-]S(=O)(=O)n2nc(-c3cc(=O)c(O)c[nH]3)n(CCCO)c2=O)C1=O)c1csc(N)n1)C(=O)[O-].[Na+].[Na+]

- MIC [2]: 8 µg/mL
Compound: Cc1cc(Cn2c(-c3cc(=O)c(O)c[nH]3)nn(S(=O)(=O)[N-]C(=O)N3C[C@H](NC(=O)/C(=N\OC(C)(C)C(=O)[O-])c4csc(N)n4)C3=O)c2=O)nn1C.[Na+].[Na+]

- MIC [2]: 2 µg/mL
Compound: Cc1cc(Cn2c(-c3cc(=O)c(O)c[nH]3)nn(S(=O)(=O)[N-]C(=O)N3C[C@H](NC(=O)/C(=N\OC(C)(C)C(=O)[O-])c4csc(N)n4)C3=O)c2=O)no1.[Na+].[Na+]

- MIC [2]: 0.5 µg/mL
Compound: CC(C)(C)CCn1c(-c2cc(=O)c(O)c[nH]2)nn(S(=O)(=O)[N-]C(=O)N2C[C@H](NC(=O)/C(=N\OC(C)(C)C(=O)[O-])c3csc(N)n3)C2=O)c1=O.[Na+].[Na+]

- fraction unbound [12]: 0.35
Compound: C=CC1=C(C(=O)O)N2C(=O)[C@@H](NC(=O)/C(=N\OCC(=O)O)c3csc(N)n3)[C@H]2SC1 [CEFIXIME]

- fraction unbound [12]: 0.75
Compound: COCC1=C(C(=O)O)N2C(=O)[C@@H](NC(=O)/C(=N\OC)c3csc(N)n3)[C@H]2SC1 [CEFPODOXIME]
